In PubChem BioAssay (NCI):
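Interpolation was linear, between the two tested concentrations surrounding the appropriate level; five concentrations were tested over 48 hours in 96-well plates. GI50 marks 50% less growth. Definition used: TGI = concentration required for complete inhibition of growth.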

Tests used:
Experiment in all cases: growth of human tumour cells (NCI), 48 h
SK-MEL-5 melanoma = tested on: SK-MEL-5 melanoma
SF-268 CNS = tested on: SF-268 CNS
HCC-2998 colon = tested on: HCC-2998 colon
TK-10 renal = tested on: TK-10 renal
NCI-H226 lung = tested on: NCI-H226 lung
OVCAR-3 ovarian = tested on: OVCAR-3 ovarian
NCI-H23 lung = tested on: NCI-H23 lung
SNB-75 CNS = tested on: SNB-75 CNS
MDA-MB-231 breast = tested on: MDA-MB-231 breast
SK-MEL-28 melanoma = tested on: SK-MEL-28 melanoma
SF-539 CNS = tested on: SF-539 CNS
HS 578T breast = tested on: HS 578T breast
HOP-62 NSCLC = tested on: HOP-62 NSCLC
KM12 colon = tested on: KM12 colon
A549 NSCLC = tested on: A549 NSCLC
RXF 393 renal = tested on: RXF 393 renal
CCRF-CEM leukemia = tested on: CCRF-CEM leukemia
SN12C renal = tested on: SN12C renal
DU-145 prostate = tested on: DU-145 prostate
T-47D breast = tested on: T-47D breast
HT29 colon = tested on: HT29 colon
MOLT-4 leukemia = tested on: MOLT-4 leukemia
U251 CNS = tested on: U251 CNS
HOP-92 NSCLC = tested on: HOP-92 NSCLC
RPMI-8226 leukemia = tested on: RPMI-8226 leukemia
ACHN renal = tested on: ACHN renal
SR leukemia = tested on: SR leukemia
NCI/ADR-RES ovarian = tested on: NCI/ADR-RES ovarian
SK-MEL-2 melanoma = tested on: SK-MEL-2 melanoma
HCT-116 colon = tested on: HCT-116 colon
LOX IMVI melanoma = tested on: LOX IMVI melanoma
K-562 leukemia = tested on: K-562 leukemia
MCF7 breast = tested on: MCF7 breast
UO-31 renal = tested on: UO-31 renal
COLO 205 colon = tested on: COLO 205 colon
OVCAR-4 ovarian = tested on: OVCAR-4 ovarian
SNB-19 CNS = tested on: SNB-19 CNS
CAKI-1 renal = tested on: CAKI-1 renal
HCT-15 colon = tested on: HCT-15 colon
IGROV1 ovarian = tested on: IGROV1 ovarian
SK-OV-3 ovarian = tested on: SK-OV-3 ovarian
786-0 renal = tested on: 786-0 renal
MDA-MB-435 = tested on: MDA-MB-435
MALME-3M melanoma = tested on: MALME-3M melanoma
NCI-H460 lung = tested on: NCI-H460 lung
HL-60(TB) leukemia = tested on: HL-60(TB) leukemia
OVCAR-8 ovarian = tested on: OVCAR-8 ovarian
NCI-H522 lung = tested on: NCI-H522 lung
UACC-257 melanoma = tested on: UACC-257 melanoma
PC-3 prostate = tested on: PC-3 prostate
BT-549 breast = tested on: BT-549 breast
M14 melanoma = tested on: M14 melanoma
OVCAR-5 ovarian = tested on: OVCAR-5 ovarian
SW-620 colon = tested on: SW-620 colon
A498 renal = tested on: A498 renal
UACC-62 melanoma = tested on: UACC-62 melanoma
SF-295 CNS = tested on: SF-295 CNS

`CCn1c(=O)c(Oc2ccc(F)cc2F)cc2cnc(NC3CCOCC3)nc21` was tested, and the GI50 (SK-MEL-5 melanoma) was greater than 25 µM, the TGI (SK-MEL-5 melanoma) was greater than 25 µM and the GI50 (SF-268 CNS) was greater than 25 µM. The TGI (SF-268 CNS) was greater than 25 µM, the GI50 (HCC-2998 colon) was greater than 25 µM and the TGI (HCC-2998 colon) was greater than 25 µM. It also gave a GI50 (TK-10 renal) of 19.7 µM, a TGI (TK-10 renal) greater than 25 µM and a GI50 (NCI-H226 lung) greater than 25 µM. It also gave a TGI (NCI-H226 lung) greater than 25 µM, a GI50 (OVCAR-3 ovarian) greater than 25 µM and a TGI (OVCAR-3 ovarian) greater than 25 µM. The GI50 (NCI-H23 lung) was greater than 25 µM, the TGI (NCI-H23 lung) was greater than 25 µM and the GI50 (SNB-75 CNS) was greater than 25 µM. The TGI (SNB-75 CNS) was greater than 25 µM, the GI50 (MDA-MB-231 breast) was greater than 25 µM and the TGI (MDA-MB-231 breast) was greater than 25 µM. The GI50 (SK-MEL-28 melanoma) was greater than 25 µM, the TGI (SK-MEL-28 melanoma) was greater than 25 µM and the GI50 (SF-539 CNS) was greater than 25 µM. The TGI (SF-539 CNS) was greater than 25 µM, the GI50 (HS 578T breast) was greater than 16.4 µM and the TGI (HS 578T breast) was greater than 25 µM. For the same compound, the GI50 (HOP-62 NSCLC) was greater than 25 µM, the TGI (HOP-62 NSCLC) was greater than 25 µM and the GI50 (KM12 colon) was greater than 25 µM. For the same compound, the TGI (KM12 colon) was greater than 25 µM, the GI50 (A549 NSCLC) was greater than 25 µM and the TGI (A549 NSCLC) was greater than 25 µM. For the same compound, the GI50 (RXF 393 renal) was greater than 18.7 µM, the TGI (RXF 393 renal) was greater than 25 µM and the GI50 (CCRF-CEM leukemia) was greater than 25 µM. The TGI (CCRF-CEM leukemia) was greater than 25 µM, the GI50 (SN12C renal) was greater than 25 µM and the TGI (SN12C renal) was greater than 25 µM. For the same compound, the GI50 (DU-145 prostate) was greater than 25 µM, the TGI (DU-145 prostate) was greater than 25 µM and the GI50 (T-47D breast) was greater than 25 µM. The TGI (T-47D breast) was greater than 25 µM, the GI50 (HT29 colon) was greater than 25 µM and the TGI (HT29 colon) was greater than 25 µM. It also gave a GI50 (MOLT-4 leukemia) greater than 25 µM, a TGI (MOLT-4 leukemia) greater than 25 µM and a GI50 (U251 CNS) greater than 25 µM. It also gave a TGI (U251 CNS) greater than 25 µM, a GI50 (HOP-92 NSCLC) of 3.19 µM and a TGI (HOP-92 NSCLC) greater than 25 µM. For the same compound, the GI50 (RPMI-8226 leukemia) was greater than 25 µM, the TGI (RPMI-8226 leukemia) was greater than 25 µM and the GI50 (ACHN renal) was greater than 25 µM. It also gave a TGI (ACHN renal) greater than 25 µM, a GI50 (SR leukemia) greater than 25 µM and a TGI (SR leukemia) greater than 25 µM. It also gave a GI50 (NCI/ADR-RES ovarian) greater than 25 µM, a TGI (NCI/ADR-RES ovarian) greater than 25 µM and a GI50 (SK-MEL-2 melanoma) greater than 25 µM. It also gave a TGI (SK-MEL-2 melanoma) greater than 25 µM, a GI50 (HCT-116 colon) greater than 25 µM and a TGI (HCT-116 colon) greater than 25 µM. For the same compound, the GI50 (LOX IMVI melanoma) was greater than 25 µM, the TGI (LOX IMVI melanoma) was greater than 25 µM and the GI50 (K-562 leukemia) was greater than 25 µM. It also gave a TGI (K-562 leukemia) greater than 25 µM, a GI50 (MCF7 breast) greater than 25 µM and a TGI (MCF7 breast) greater than 25 µM. For the same compound, the GI50 (UO-31 renal) was 5.47 µM, the TGI (UO-31 renal) was greater than 15.2 µM and the GI50 (COLO 205 colon) was greater than 25 µM. For the same compound, the TGI (COLO 205 colon) was greater than 25 µM, the GI50 (OVCAR-4 ovarian) was greater than 25 µM and the TGI (OVCAR-4 ovarian) was greater than 25 µM. For the same compound, the GI50 (SNB-19 CNS) was greater than 25 µM, the TGI (SNB-19 CNS) was greater than 25 µM and the GI50 (CAKI-1 renal) was greater than 25 µM. It also gave a TGI (CAKI-1 renal) greater than 25 µM, a GI50 (HCT-15 colon) greater than 25 µM and a TGI (HCT-15 colon) greater than 25 µM. For the same compound, the GI50 (IGROV1 ovarian) was greater than 25 µM, the TGI (IGROV1 ovarian) was greater than 25 µM and the GI50 (SK-OV-3 ovarian) was greater than 25 µM. It also gave a TGI (SK-OV-3 ovarian) greater than 25 µM, a GI50 (786-0 renal) greater than 25 µM and a TGI (786-0 renal) greater than 25 µM. For the same compound, the GI50 (MDA-MB-435) was greater than 25 µM, the TGI (MDA-MB-435) was greater than 25 µM and the GI50 (MALME-3M melanoma) was greater than 25 µM. For the same compound, the TGI (MALME-3M melanoma) was greater than 25 µM, the GI50 (NCI-H460 lung) was greater than 25 µM and the TGI (NCI-H460 lung) was greater than 25 µM. It also gave a GI50 (HL-60(TB) leukemia) greater than 14.1 µM, a TGI (HL-60(TB) leukemia) greater than 25 µM and a GI50 (OVCAR-8 ovarian) greater than 25 µM. It also gave a TGI (OVCAR-8 ovarian) greater than 25 µM, a GI50 (NCI-H522 lung) greater than 25 µM and a TGI (NCI-H522 lung) greater than 25 µM. For the same compound, the GI50 (UACC-257 melanoma) was greater than 25 µM, the TGI (UACC-257 melanoma) was greater than 25 µM and the GI50 (PC-3 prostate) was greater than 25 µM. It also gave a TGI (PC-3 prostate) greater than 25 µM, a GI50 (BT-549 breast) greater than 25 µM and a TGI (BT-549 breast) greater than 25 µM. For the same compound, the GI50 (M14 melanoma) was greater than 25 µM, the TGI (M14 melanoma) was greater than 25 µM and the GI50 (OVCAR-5 ovarian) was greater than 25 µM. For the same compound, the TGI (OVCAR-5 ovarian) was greater than 25 µM, the GI50 (SW-620 colon) was greater than 25 µM and the TGI (SW-620 colon) was greater than 25 µM. It also gave a GI50 (A498 renal) of 6.94 µM, a TGI (A498 renal) greater than 25 µM and a GI50 (UACC-62 melanoma) greater than 25 µM. For the same compound, the TGI (UACC-62 melanoma) was greater than 25 µM, the GI50 (SF-295 CNS) was greater than 25 µM and the TGI (SF-295 CNS) was greater than 25 µM.
